Key:
[1] = tested on: substance P and glutamate; assay: Clinical observation of suppression of substance P and glutamate by nitrous oxide; type: in vivo
Text: The length of treatment to suppress the severe cytokine reaction will vary and be influenced by the time to medically correct the initiating factor. […] For children, adjustments will have to be made for age and body weight. […] Other inhalants can be included in the above-compositions such as for other purposes.

[2] = at effective dosages; cited from earlier work

[N-]=[N+]=O [nitrous oxide]
Duration of substance P suppression, average cases ([1]; average cases): 4 to 8 h | duration of suppression of substance P and glutamate ([1]; conscious sedation levels, about 50% nitrous oxide/about 50% oxygen): 6 to 8 h | respiratory depression, over sedation, or irritation of the lungs [2]: does not cause respiratory depression, over sedation, or irritation of the lungs
